Test results published in patent US20260216121A1, “3AH-CYCLOPENTA[B]BENZOFURAN-3A-YL AS RAS INHIBITORS” (SJP BIOTEC GMBH, priority 2023, published 2026).
pIC50: −log10 of the molar value. Where two headings read alike, the source gives them in different places.

What was measured:
[1] = iv (intravenous) PK; assay type: in vivo; conditions: for AUCinf(h*nM) Free / C average (nM) free / Cmax (nM), Free / AUC(0-inf) / Cmax / half-life: 2 mg/kg; for AUCinf(h*nM) Free / C average (nM) free / Cmax (nM), Free / half-life: i.v.; for Unbound clearance: Table 4, other values of the table equal the 2 mg/kg i.v. data; for AUC(0-inf) / Cmax / half-life: in vivo, iv; for half-life: read-out: T½ (converted)
Text: (§1) After administration, a certain amount of drug is in the blood or plasma. Of the total amount in the blood or plasma, some is bound to proteins (or other species in the blood or plasma). Only unbound drug is available e.g., for drug-target interactions. Therefore, the higher the unbound fraction that is available in the blood or plasma, the more is available for binding the drug to a target. The less unbound drug is available in the blood or plasma e.g., because it is involved in competitive binding to, for example, albumin, the less is available for desired drug-target interaction. The protocol for determining the unbound fraction and pharmacokinetics is routine practice and known to the skilled person.

[2] = Unbound fraction in human plasma (equilibrium dialysis); assay type: in vitro ADME; conditions: pH 7.4, dialysis 4 hours at 37 °C
Text: as §1
HT-Dialysis plates (Model HTD 96 b, Cat #1006) and the dialysis membrane (molecular weight cut off 12-14 KDa, Cat #1101) were purchased from HT Dialysis LLC (Gales Ferry, CT).
Dialysis Buffer (100 mM sodium phosphate and 150 mM NaCl, pH 7.4±0.1)
Stop Solution (Acetonitrile containing tolbutamide at 200 ng/mL, labetalol at 200 ng/mL)
On the day of experiment, the plasma was thawed under running cold tap water and centrifuged at 3220×g for 5 min to remove any clots. The pH value was checked and recorded. […]
The dialysis membrane was pretreated according to the manufacturer's instructions: the dialysis membrane strips were soaked in ultra-pure water at room temperature for approximately 1 hr. Afterwards, each membrane strip that contains 2 membranes was separated and soaked in ethanol:water (20:80 v:v) for approximately 20 min, after which it was ready for use or was stored in the solution at 2-8° C. for up to 1 month. […]
The % Unbound, % Bound and % Recovery were calculated using the following equations:
[formula] […] [formula] • F=Free compound concentration as determined by the calculated concentration on the buffer side of the membrane • T=Total compound concentration as determined by the calculated concentration on the matrix side of the membrane • T0=Total compound concentration as determined by the calculated concentration in matrix before dialysis

[3] = oral PK; assay type: in vivo; conditions: for AUC(0-inf) / Cmax / average free concentration at 24 h / half-life: in vivo; for average free concentration at 24 h: read-out: C average (nM) free; for half-life: read-out: T½ (converted)
Text: as §1

[4] = biological target: T1, KRAS G12V (Homo sapiens, UniProt P01116, G12V); experiment: NanoBiT assay for RAS GTP-loading (LgBit-KRAS G12V / SmBit-CRAF-RBD) in HeLa cells; assay type: cell-based
T1 construct: expressed in transfected cells; host or cells: HeLa
T1 sequence (P01116 1-186 isoform P01116-2 G12V limits assumed): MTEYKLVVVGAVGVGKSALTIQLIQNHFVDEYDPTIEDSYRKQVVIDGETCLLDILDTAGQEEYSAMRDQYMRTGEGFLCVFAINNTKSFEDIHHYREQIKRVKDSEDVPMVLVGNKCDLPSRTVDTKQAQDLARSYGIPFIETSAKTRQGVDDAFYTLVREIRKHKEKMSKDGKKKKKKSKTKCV
Description: (§2) NanoBiT assay for the RAS GTP-loading was performed in HeLa cells transfected with LgBit-K, N and HRAS G12V and SmBit-CRAF-RBD. Cells were treated with compounds 1 or C-1 for 2 h in serum-free DMEM (Dulbecco's modified Eagle's Medium). After incubation, the substrate for NanoLuc was added, and the luminescence was measured using a multiplate reader. Data were normalized to cells transfected with the indicated mutant and exposed to DMSO for 2 h. DMSO-treated cells were set as 1. The results shown are mean from 3 independent experiments.
(§3) HeLa cells were harvested with 0.05% Trypsin/0.02% EDTA in PBS and seeded in 6 well or 12 well cell culture plates at the concentration of 5×10^4 cells in complete DMEM (2 ml for 6 well plate and 1 ml for 12 well plate). After 1 day from seeding, the DNA were transfected with Flag tagged Ras or NanoBiT plasmid using PEI/PBS solution.
(§4) The plasmids were transfected to HeLa cells and the cells were harvested after 1 day of transfection. The cells were seeded to 96 well white plate. Next day, the medium was changed to serum free DMEM for 2 h with compounds. After incubation, Nano Glo assay was performed. The luminescence was measured using Tecan SPARKS (Tecan). IC50 calculations by non-linear regression were conducted with GraphPad Prism 9.

[5] = test system: sNF96.2; experiment: MTT assay for cell viability, sNF96.2; assay type: cell-based; conditions: 48 h, mean from 3 independent experiments
Description: (§5) Cells with RAS mutations were treated with compounds 1 and C-1 for 48 h and cell viability was evaluated by MTT assay. The results shown are mean from 3 independent experiments.
(§6) HCT-116 were authenticated by Eurofin genomics and cultured in DMEM (10% heat inactivated FBS). sNF96.2 were purchased from ATCC and cultured in DMEM (10% heat inactivated FBS+1 mM Na Pyruvate). ASPC-1 cells were purchased from DSMZ and cultured in RPMI-1640 (10% heat inactivated FBS). NCI-H358 were purchased from ATCC and cultured in RPMI-1640 (10% heat inactivated FBS). T24 and HCT-116 cells were cultured in Mccoy's 5A medium (10% heat inactivated FBS). HT-1080 cells were cultured in EMEM (10% heat inactivated FBS+1 mM Na Pyruvate).
(§7) Cancer cells were seeded in 96 well plates (5×10^3 cells/well) in 80 μl in growth medium and cultured for 1 day in the incubator. Next day, 20 μl of compounds containing growth medium was added to each well and the cells were cultured for 48 h. After incubation with compounds, 10 μl of MTT solution was added to the wells and incubated for 2-4 hours. After incubation with MTT, solubilization buffer was added and incubated over night. MTT was measured at O.D. 570 nm with a plate reader (Tecan). IC50 calculations by non-linear regression were conducted with GraphPad Prism 9.

[6] = biological target: T2, HRAS G12V (Homo sapiens, UniProt P01112, G12V); experiment: NanoBiT assay for RAS GTP-loading (LgBit-HRAS G12V / SmBit-CRAF-RBD) in HeLa cells; assay type: cell-based
T2 construct: expressed in transfected cells; host or cells: HeLa
T2 sequence (P01112 1-186 G12V limits assumed): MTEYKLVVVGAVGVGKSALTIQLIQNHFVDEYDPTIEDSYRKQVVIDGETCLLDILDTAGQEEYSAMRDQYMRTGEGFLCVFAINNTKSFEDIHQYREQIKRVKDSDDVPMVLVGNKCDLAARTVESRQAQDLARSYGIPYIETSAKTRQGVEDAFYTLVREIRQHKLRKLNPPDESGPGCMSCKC
Description: as §2, §3, §4

[7] = test system: T24; experiment: MTT assay for cell viability, T24; assay type: cell-based; conditions: Homo sapiens, T-24, 48 h, mean from 3 independent experiments
Description: as §5, §6, §7

[8] = test system: HT-1080; experiment: MTT assay for cell viability, HT-1080; assay type: cell-based; conditions: Homo sapiens, 48 h, mean from 3 independent experiments
Description: as §5, §6, §7

[9] = biological target: T3, NRAS G12V (Homo sapiens, UniProt P01111, G12V); experiment: NanoBiT assay for RAS GTP-loading (LgBit-NRAS G12V / SmBit-CRAF-RBD) in HeLa cells; assay type: cell-based
T3 construct: expressed in transfected cells; host or cells: HeLa
T3 sequence (P01111 1-186 G12V limits assumed): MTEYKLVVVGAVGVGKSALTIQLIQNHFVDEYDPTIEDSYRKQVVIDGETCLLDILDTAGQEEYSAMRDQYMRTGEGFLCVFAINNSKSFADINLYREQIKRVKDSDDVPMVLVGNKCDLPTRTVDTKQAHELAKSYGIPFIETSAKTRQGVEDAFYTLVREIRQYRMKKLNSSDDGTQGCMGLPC
Description: as §2, §3, §4

[10] = test system: ASPC1; experiment: MTT assay for cell viability, ASPC1; assay type: cell-based; conditions: Homo sapiens, 48 h, mean from 3 independent experiments
Description: as §5, §6, §7

[11] = test system: HCT-116; experiment: MTT assay for cell viability, HCT-116; assay type: cell-based; conditions: Homo sapiens, 48 h, mean from 3 independent experiments
Description: as §5, §6, §7

[12] = test system: H358; experiment: MTT assay for cell viability, H358; assay type: cell-based; conditions: Homo sapiens, NCI-H358, 48 h, mean from 3 independent experiments
Description: as §5, §6, §7

[13] = IC50 (nM, KRAS G12V), as listed in the PK tables 1-4, assay not named

## COc1cc(OC)c2c(c1)O[C@@]1(c3ccc(C#N)cc3)[C@H](c3ccccc3)C[C@@H](O)[C@@]21O (single isomer, unassigned) [Compound 2]
[1]
  AUCinf(h*nM) Free: 51.8 nM·h
  C average (nM) free: 2.2 nM
  Cmax (nM), Free: 43.7 nM
  Unbound clearance: 94.854 L/h/kg
  AUC(0-inf): 2.1 µM·h
  Cmax: 1700 nM
  half-life: 4 h
[2]
  fraction unbound at 4 h, 2 µM: 0.025
[3]; 10 mg/kg
  AUCinf(h*nM) Free: 26.6 nM·h
  Cmax (nM), Free: 21.4 nM
  AUC(0-inf): 1.1 µM·h
  Cmax: 900 nM
  average free concentration at 24 h: 1.1 nM
  half-life: 1.3 h
[4]; [13]
  IC50: 5.4 nM

## COc1cc(OC)c2c(c1)O[C@@]1(c3ccc(Cl)cc3)[C@H](c3ccccc3)C[C@@H](O)[C@@]21O [Compound C-1, (1R,3S,3aR,8bS)-3a-(4-chlorophenyl)-6,8-dimethoxy-3-phenyl-1,2,3,3a-tetrahydro-8bH-cyclopenta[b]benzofuran-1,8b-diol, reference compound]
[1]
  AUCinf(h*nM) Free: 7.9 nM·h
  C average (nM) free: 0.3 nM
  Cmax (nM), Free: 14.5 nM
  Unbound clearance: 581.38 L/h/kg
  AUC(0-inf): 0.9 µM·h
  Cmax: 1700 nM
  half-life: 1.3 h
[5]
  IC50: 7.22 nM
[6]; NanoBiT, HeLa cells, 2 h in serum-free DMEM, read-out: IC50 (nM) HRAS G12V
  IC50: 53.5 nM
[7]
  IC50: 28.5 nM
[2]
  fraction unbound at 4 h, 2 µM: 0.009
[3]; 10 mg/kg
  AUCinf(h*nM) Free: 4.9 nM·h
  Cmax (nM), Free: 2.3 nM
  AUC(0-inf): 0.6 µM·h
  Cmax: 300 nM
  average free concentration at 24 h: 0.2 nM
  half-life: 1.7 h
[3]; 50 mg/kg
  AUCinf(h*nM) Free: 109.8 nM·h
  Cmax (nM), Free: 34.3 nM
  AUC(0-inf): 12.6 µM·h
  Cmax: 3900 nM
  average free concentration at 24 h: 4.6 nM
  half-life: 2.7 h
[8]
  IC50: 18 nM
[9]; NanoBiT, HeLa cells, 2 h in serum-free DMEM, read-out: IC50 (nM) NRAS G12V
  IC50: 61.4 nM
[10]
  IC50: 26.6 nM
[11]
  IC50: 21.9 nM
[12]
  IC50: 40 nM
[4]; NanoBiT, HeLa cells, 2 h in serum-free DMEM, read-out: IC50 (nM) KRAS G12V
  IC50: 56.6 nM
[4]; as listed in the PK tables 1-4, assay not named, read-out: IC50 (nM, KRAS G12V)
  IC50: 29 nM

## COc1cc(OC)c2c(c1)O[C@@]1(c3ccc(C#N)cc3)[C@H](c3cccc(F)c3)C[C@@H](O)[C@@]21O (single isomer, unassigned) [Compound 1]
[1]
  AUCinf(h*nM) Free: 19.8 nM·h
  C average (nM) free: 0.8 nM
  Cmax (nM), Free: 30.4 nM
  Unbound clearance: 221 L/h/kg
  AUC(0-inf): 0.8 µM·h
  Cmax: 1200 nM
  half-life: 0.9 h
[5]
  IC50: 3.69 nM
[6]
  pIC50: 7.87
[7]
  IC50: 13.2 nM
[2]
  fraction unbound at 4 h, 2 µM: 0.026
[3]; 50 mg/kg
  AUCinf(h*nM) Free: 378.6 nM·h
  Cmax (nM), Free: 105.3 nM
  AUC(0-inf): 14.6 µM·h
  Cmax: 4100 nM
  average free concentration at 24 h: 15.8 nM
  half-life: 3.5 h
[8]
  IC50: 5.39 nM
[9]
  pIC50: 7.69
[10]
  IC50: 11.9 nM
[11]
  IC50: 8.99 nM
[12]
  IC50: 15.6 nM
[4]; IC50 (nM) KRAS G12V, NanoBiT, HeLa cells, 2 h in serum-free DMEM
  IC50: 16.5 nM
[4]; [13]
  IC50: 8.5 nM
